Like-named read-outs stand apart in the source and are kept apart here.
Assays:
[1] = test system: C. perfringens reference strains (NCTC 2837, 8235, 8237, 8238, 8239, 8359, 8678, 10578); type: cell-based, Clostridium perfringens; conditions: for effect on C. perfringens growth in spot assay: 10 μg/ml chloramphenicol, 20 μg/ml spectinomycin, 1 mg/mL lysozyme, 1 mg/mL disodium EDTA; for effect in spot assay: NCTC 8237, FIG. 4, freshly-plated cells and cell lawns
[2] = test system: Clostridium leptum (DSMZ 753); experiment: Spot assay of clarified lysates on non-Cp species; type: cell-based; parameters: key: The presence of antimicrobial activity is denoted by a ‘+’; the lack of antimicrobial activity is denoted by a ‘−’
[3] = test system: Clostridium cellobioparum (DSMZ 1351); experiment: Spot assay of clarified lysates on non-Cp species; type: cell-based; parameters: key: The presence of antimicrobial activity is denoted by a ‘+’; the lack of antimicrobial activity is denoted by a ‘−’
[4] = test system: Clostridium colinum (DSMZ 6011); experiment: Spot assay of clarified lysates on non-Cp species; type: cell-based; parameters: key: The presence of antimicrobial activity is denoted by a ‘+’; the lack of antimicrobial activity is denoted by a ‘−’
[5] = test system: Bifidobacterium adolescentis (DSMZ 20083); experiment: Spot assay of clarified lysates on non-Cp species; type: cell-based; parameters: key: The presence of antimicrobial activity is denoted by a ‘+’; the lack of antimicrobial activity is denoted by a ‘−’
[6] = test system: C. perfringens NCTC reference strains and APHA field isolates; type: cell-based, Clostridium perfringens; parameters: key to bacteriolytic activity, cell lawn: (−) indicates no visible lysis; +/−, +, ++, +++ correspond to increasingly clear lysis halos around the paper disks; +/−, +, ++, +++ correspond to increasingly clear lysis halos around the paper disks; +/−, +, ++, +++ correspond to increasingly clear lysis halos around the paper disks; +/−, +, ++, +++ correspond to increasingly clear lysis halos around the paper disks
[7] = test system: C. perfringens reference strains (NCTC 2837, 8237, 8238, 8239); type: cell-based, Clostridium perfringens
[8] = test system: C. perfringens strain Cp6; type: cell-based, Clostridium perfringens
[9] = test system: C. perfringens Cp6 PGN; type: biochemical, Clostridium perfringens; conditions: 54D extract, 3× replicates, fresh PGN stock
[10] = NCTC 2837, FP (freshly-plated cells)

CC1(C)S[C@@H]2[C@H](NC(=O)[C@H](N)c3ccccc3)C(=O)N2[C@H]1C(=O)O [Ampicillin]
antimicrobial activity in spot assay (clearance zone) ([1]; NCTC 2837, CL (cell lawn)): − | antimicrobial activity in spot assay (clearance zone) [1, 10]: + | antimicrobial activity in spot assay (clearance zone) ([1]; NCTC 8235, CL): − | antimicrobial activity in spot assay (clearance zone) ([1]; NCTC 8235, FP): + | antimicrobial activity in spot assay (clearance zone) ([1]; NCTC 8237, CL): − | antimicrobial activity in spot assay (clearance zone) ([1]; NCTC 8237, FP): + | antimicrobial activity in spot assay (clearance zone) ([1]; NCTC 8238, CL): − | antimicrobial activity in spot assay (clearance zone) ([1]; NCTC 8238, FP): + | antimicrobial activity in spot assay (clearance zone) ([1]; NCTC 8239, CL): − | antimicrobial activity in spot assay (clearance zone) ([1]; NCTC 8239, FP): + | antimicrobial activity in spot assay (clearance zone) ([1]; NCTC 8359, CL): − | antimicrobial activity in spot assay (clearance zone) ([1]; NCTC 8359, FP): + | antimicrobial activity in spot assay (clearance zone) ([1]; NCTC 8678, CL): − | antimicrobial activity in spot assay (clearance zone) ([1]; NCTC 8678, FP): + | antimicrobial activity in spot assay (clearance zone) ([1]; NCTC 10578, CL): − | antimicrobial activity in spot assay (clearance zone) ([1]; NCTC 10578, FP): + | antimicrobial activity in spot assay (clearance zone) ([2]; DSMZ 753, CL): − | antimicrobial activity in spot assay (clearance zone) ([3]; DSMZ 1351, CL): − | antimicrobial activity in spot assay (clearance zone) ([3]; DSMZ 1351, FP): + | antimicrobial activity in spot assay (clearance zone) ([4]; DSMZ 6011, CL): − | antimicrobial activity in spot assay (clearance zone) ([4]; DSMZ 6011, FP): − | antimicrobial activity in spot assay (clearance zone) ([5]; DSMZ 20083, CL): − | antimicrobial activity in spot assay (clearance zone) ([5]; DSMZ 20083, FP): +

O=C(N[C@H](CO)[C@H](O)c1ccc([N+](=O)[O-])cc1)C(Cl)Cl [Chloramphenicol]
effect on C. perfringens growth in spot assay [1]: no effect | effect in spot assay [1]: no effect

O=C([O-])CN(CCN(CC(=O)[O-])CC(=O)O)CC(=O)O.[Na+].[Na+] [disodium EDTA]
effect on C. perfringens growth in spot assay [1]: no effect | effect on freshly-plated cells in spot assay ([1]; 10 mM EDTA, screening set 2): inhibitory effect

NC[C@H]1O[C@H](O[C@H]2[C@H](O)[C@@H](O[C@H]3O[C@H](CO)[C@@H](O)[C@H](N)[C@H]3O)[C@H](N)C[C@@H]2N)[C@H](O)[C@@H](O)[C@@H]1O [kanamycin]
effect in spot assay [1]: no effect

CN[C@@H]1[C@H](O)[C@H](NC)[C@H]2O[C@@]3(O)C(=O)C[C@@H](C)O[C@H]3O[C@@H]2[C@H]1O [spectinomycin]
effect on C. perfringens growth in spot assay [1]: no effect | effect in spot assay [1]: no effect

Lysozyme: Chicken hen egg white lysozyme, reference enzybiotic
effect on C. perfringens growth in spot assay [1]: no effect | antimicrobial activity in spot assay (clearance zone) ([1]; NCTC 2837, CL (cell lawn)): − | antimicrobial activity in spot assay (clearance zone) [1, 10]: − | antimicrobial activity in spot assay (clearance zone) ([1]; NCTC 8235, CL): − | antimicrobial activity in spot assay (clearance zone) ([1]; NCTC 8235, FP): − | antimicrobial activity in spot assay (clearance zone) ([1]; NCTC 8237, CL): − | antimicrobial activity in spot assay (clearance zone) ([1]; NCTC 8237, FP): − | antimicrobial activity in spot assay (clearance zone) ([1]; NCTC 8238, CL): − | antimicrobial activity in spot assay (clearance zone) ([1]; NCTC 8238, FP): − | antimicrobial activity in spot assay (clearance zone) ([1]; NCTC 8239, CL): − | antimicrobial activity in spot assay (clearance zone) ([1]; NCTC 8239, FP): − | antimicrobial activity in spot assay (clearance zone) ([1]; NCTC 8359, CL): − | antimicrobial activity in spot assay (clearance zone) ([1]; NCTC 8359, FP): + | antimicrobial activity in spot assay (clearance zone) ([1]; NCTC 8678, CL): − | antimicrobial activity in spot assay (clearance zone) ([1]; NCTC 8678, FP): − | antimicrobial activity in spot assay (clearance zone) ([1]; NCTC 10578, CL): − | antimicrobial activity in spot assay (clearance zone) ([1]; NCTC 10578, FP): − | antimicrobial activity in spot assay (clearance zone) [2]: − | antimicrobial activity in spot assay (clearance zone) [3]: − | antimicrobial activity in spot assay (clearance zone) [4]: − | antimicrobial activity in spot assay (clearance zone) ([5]; DSMZ 20083, CL): − | antimicrobial activity in spot assay (clearance zone) ([5]; DSMZ 20083, FP): − | bacteriolytic activity, cell lawn ([6]; APHA B00907, 50 μg/ml): − | growth inhibition, freshly plated cells ([6]; APHA B00907, 50 μg/ml): − | bacteriolytic activity, cell lawn ([6]; APHA B00917, 50 μg/ml): − | growth inhibition, freshly plated cells ([6]; APHA B00917, 50 μg/ml): − | bacteriolytic activity, cell lawn ([6]; APHA B00954, 50 μg/ml): − | growth inhibition, freshly plated cells ([6]; APHA B00954, 50 μg/ml): − | bacteriolytic activity, cell lawn ([6]; APHA B00964, 50 μg/ml): − | growth inhibition, freshly plated cells ([6]; APHA B00964, 50 μg/ml): − | bacteriolytic activity, cell lawn ([6]; APHA B00976, 50 μg/ml): − | growth inhibition, freshly plated cells ([6]; APHA B00976, 50 μg/ml): − | bacteriolytic activity, cell lawn ([6]; APHA G00033, 50 μg/ml): − | growth inhibition, freshly plated cells ([6]; APHA G00033, 50 μg/ml): − | bacteriolytic activity, cell lawn ([6]; APHA W100102, 50 μg/ml): − | growth inhibition, freshly plated cells ([6]; APHA W100102, 50 μg/ml): − | bacteriolytic activity, cell lawn ([6]; NCTC 2837, 50 μg/ml): − | growth inhibition, freshly plated cells ([6]; NCTC 2837, 50 μg/ml): − | bacteriolytic activity, cell lawn ([6]; NCTC 8237, 50 μg/ml): − | growth inhibition, freshly plated cells ([6]; NCTC 8237, 50 μg/ml): − | bacteriolytic activity, cell lawn ([6]; NCTC 8238, 50 μg/ml): − | growth inhibition, freshly plated cells ([6]; NCTC 8238, 50 μg/ml): − | bacteriolytic activity, cell lawn ([6]; NCTC 8239, 50 μg/ml): − | growth inhibition, freshly plated cells ([6]; NCTC 8239, 50 μg/ml): − | bacteriolytic activity in turbidity reduction assay [7]: minimal bacteriolytic activities | MBC ([8]; Cp6, molar basis): >174 µM | MIC ([8]; Cp6, molar basis): >174 µM | MBC ([8]; Cp6, ~2.1E4 cells/mL): >2500 µg/mL | lysozyme loading not able to inhibit overnight growth ([8]; Cp6, ~2.1E4 cells/mL): > 2.5 mg/mL | MIC ([8]; Cp6, ~2.1E4 cells/mL, overnight at 41° C.): >2500 µg/mL

B1: AMI3CPF4969: endolysin sequence, SEQ ID NO: 11 (protein)
chain: QSRSDSNFKGIDISNWQKGINLNQLKERGYDVCYIKITEGKGYVDPCFEENYNKAIAAGMKVGVYHYWRGTSSAIEQANNIVRTLGNKHIDCKIAIDVEQTDGLSYGELNNSVLQLAEELERLIGAEVCIYCNTNYARNVLDSRLGKYSLWVAHYGVNKPGDNPIWDKWAGFQYSENGTSNVNGSLDLDEFTEEIFINKESSKVTENKLFSTNARALVALDPRDNPSDNYNDLGEIYEGERIQVLAEVCDKEDYLPVKYWKDSEGRESGKVWIRSKQDYMMIDTYHRVFNVITQLDARYEPSSDSATMGYVKNGERLYVHRTEGNYSLCTYFAGNGYKTAWFTAKYLER
modifications: AMI3CPF4969
fold enhancement of PGN degradation activity in 54D algal extract vs PBS, pH 7.0 [9]: ≤ 44 fold
